Consider 13 compounds from patent publication US20170267667A1, “[…] AS NON-NUCLEOSIDE REVERSE TRANSCRIPTASE INHIBITORS FOR ANTI-HIV-1 CHEMOTHERAPY” (Purdue Research Foundation, priority 2016, published 2017).

Some results are limits rather than exact numbers.

Series [1] can be described thus: Cytotoxicity for mock-infected CEM-SS cells. In kind it is cell-based. The note with it: human. On the procedure: (§1) In Vitro Antiviral Assay. Evaluation of the antiviral activity of compounds against HIV- 1RF infection in CEM-SS cells was performed using the XTT cytoprotection assay, as previously described (Buckheit, R. W. Jr., et al., Antiviral Res. 1995, 26, 117-132). Evaluation of the antiviral activity of compounds against HIV-1IIIB and HIV-2ROD in MT-4 cells was performed using the MTT assay, as previously described (Rice, W. G. and Bader, J. P., Adv. Pharmacol. (San Diego) 1995, 33, 389-438).
(§2) Biological Results. The antiviral activities of the ADAMs were evaluated by determining their ability to inhibit the enzymatic activity of HIV-1 RT in vitro (IC50) and protect HIV-infected cells from the cytopathic effects (EC50) of two viral strains (HIV-1RF and HIV-1IIIB). The cytotoxicities (CC50) of the ADAMs were determined on CEM-SS cells and MT-4 cells.

Series [2] has as its system HIV-1RF. Description: XTT cytoprotection assay, HIV-1RF infection in CEM-SS cells. To be noted: for SI (CC50/EC50) CEM-SS cells: CC50/EC50 ratio, HIV-1RF in CEM-SS cells; for EC50: Human immunodeficiency virus 1, inhibition of cytopathicity of HIV-1RF in CEM-SS cells. In kind it is cell-based. Here is the method: as §1
(Formazan colour is commonly taken as a measure of viable cells.)

Series [3] can be described thus: Cytotoxicity for mock-infected MT-4 cells. In kind it is cell-based. To be noted: human. Here is the method: as §1, §2
Series [4] concerns HIV-1IIIB. Description: MTT assay, HIV-1IIIB in MT-4 cells. In kind it is cell-based. To be noted: for SI (CC50/EC50) MT-4 cells: CC50/EC50 ratio, HIV-1IIIB in MT-4 cells; for EC50: Human immunodeficiency virus 1, MT4, inhibition of cytopathicity of HIV-1IIIB in MT-4 cells. Here is the method: as §1
Series [5] deals with HIV-1 reverse transcriptase (Human immunodeficiency virus type 1 group M subtype B, UniProt P04585). Description: RT inhibition assay, incorporation of [32P]GTP into poly(rC)/oligo(dG) template primer. It counts as biochemical. The note with it: poly(rC):oligo(dG) as the template primer; mean of at least two experiments; read-out: IC50 inhibitory activity versus HIV-1 reverse transcriptase. Here is the method:
RT Inhibition Assay. Inhibition of purified recombinant reverse transcriptase was measured by the incorporation of [^32P]GTP into poly(rC)/oligo(dG) homopolymer template primers, as previously described (Cushman, M., et al., J. Med. Chem. 1996, 39, 3217-3227).

For the compound `CON=C(F)c1cc(/C(=C\CCCc2nnc(C)o2)c2cc(C)c3oc(=O)n(C)c3c2)cc(C)c1OC` [ADAM 5, 5-[(1E)-1-(3,7-Dimethyl-2-oxo-2,3-dihydro-1,3-benzoxazol-5-yl)-5-(5-methyl-1,3,4-oxadiazol-2-yl)pent-1-en-1-yl]-N,2-dimethoxy-3-methylbenzenecarboximidoyl Fluoride], the CC50 (as a rule, the concentration that lowers cell viability or growth by half) in series [1] stood at 6.5 µM. Besides, in series [2], the “SI (CC50/EC50) CEM-SS cells” value is 13 and a half-maximal response (EC50) required 0.5 µM. Half-maximal cytotoxicity in series [3] (CC50) was put at 26.5 µM. In series [4], the “SI (CC50/EC50) MT-4 cells” value is 76 and the EC50 (usually the midpoint of the concentration-response curve) is 0.35 µM. Besides, the IC50 (as a rule, the concentration at which inhibition is half-maximal) in series [5] is 3.4 µM.

In the case of `CON=C(F)c1cc(/C(=C\CCCN2CCOC2=O)c2cc(C)c3oc(=O)n(C)c3c2)cc(C)c1OC` [ADAM 6, 5-[(1E)-1-(3,7-Dimethyl-2-oxo-2,3-dihydro-1,3-benzoxazol-5-yl)-5-(2-oxo-1,3-oxazolidin-3-yl)pent-1-en-1-yl]-N,2-dimethoxy-3-methylbenzenecarboximidoyl Fluoride], the CC50 in series [1] was 5.04 µM; in series [3] it was 7.53 µM. In addition, the values for the EC50 in series [2] and in series [4] were above 100 µM and above 7.53 µM, respectively. In addition, the IC50 in series [5] was found to be 2.37 µM.

For the compound `CON=C(F)c1cc(/C(=C\CCCc2nnc(C)o2)c2cc(C)c3onc(OC)c3c2)cc(C)c1OC` [ADAM 7, N,2-Dimethoxy-5-[(1Z)-1-(3-methoxy-7-methyl-1,2-benzoxazol-5-yl)-5-(5-methyl-1,3,4-oxadiazol-2-yl)pent-1-en-1-yl]-3-methylbenzenecarboximidoyl Fluoride], the CC50 in series [1] was 13.9 µM; in series [3] it was 15.8 µM. The “SI (CC50/EC50) CEM-SS cells” value in series [2] is listed as 7. For the same compound, the results for the EC50 in series [2] and in series [4] were 1.9 µM and 2.86 µM, respectively. Also, in series [4], the “SI (CC50/EC50) MT-4 cells” value stood at 6. In addition, the IC50 in series [5] turned out to be 1.4 µM.

For `CON=C(F)c1cc(/C(=C\CCCc2nc(C)no2)c2cc(C)c3onc(OC)c3c2)cc(C)c1OC` [ADAM 8, N,2-Dimethoxy-5-[(1Z)-1-(3-methoxy-7-methyl-1,2-benzoxazol-5-yl)-5-(3-methyl-1,2,4-oxadiazol-5-yl)pent-1-en-1-yl]-3-methylbenzenecarboximidoyl Fluoride], the CC50 in series [1] worked out at 5.39 µM. Also, in series [2], the “SI (CC50/EC50) CEM-SS cells” value was found to be 3 and the EC50 is 2.04 µM. In addition, the CC50 in series [3] is 9.66 µM. Besides, in series [4], the “SI (CC50/EC50) MT-4 cells” value stood at 2 and a half-maximal response (EC50) required 4.07 µM. For the same compound, in series [5], the concentration for half-maximal inhibition (IC50) amounted to 1.85 µM.

For the compound `CON=C(F)c1cc(/C(=C\CCCN2CCOC2=O)c2cc(C)c3onc(OC)c3c2)cc(C)c1OC` [ADAM 9, N,2-Dimethoxy-5-[(1Z)-1-(3-methoxy-7-methyl-1,2-benzoxazol-5-yl)-5-(2-oxo-1,3-oxazolidin-3-yl)pent-1-en-1-yl]-3-methylbenzenecarboximidoyl Fluoride], the CC50 turned out to be 17.8 µM in series [1] and 26.1 µM in series [3]. Moreover, the EC50 in series [2] is above 100 µM; in series [4], above 26.1 µM. The IC50 in series [5] is 46.7 µM.

As to `CON=C(F)c1cc(/C(=C\CCCc2nnc(C)o2)c2cccc(C#N)c2)cc(C)c1OC` [ADAM 10, 5-[(1Z)-1-(3-Cyanophenyl)-5-(5-methyl-1,3,4-oxadiazol-2-yl)pent-1-en-1-yl]-N,2-dimethoxy-3-methylbenzenecarboximidoyl Fluoride], the CC50 in series [1] came out at 1.8 µM; in series [3] it was 1.07 µM. In addition, the EC50 in series [2] was above 100 µM; in series [4] it was above 1.09 µM. Besides, the IC50 in series [5] was 37.1 µM.

Turning to `CON=C(F)c1cc(/C(=C\CCCc2nc(C)no2)c2cccc(C#N)c2)cc(C)c1OC` [ADAM 11, 5-[(1Z)-1-(3-Cyanophenyl)-5-(3-methyl-1,2,4-oxadiazol-5-yl)pent-1-en-1-yl]-N,2-dimethoxy-3-methylbenzenecarboximidoyl Fluoride], the CC50 turned out to be 3.5 µM in series [1] and 4.04 µM in series [3]. The results for the EC50 in series [2] and in series [4] were above 100 µM and above 4.04 µM, respectively. In addition, in series [5], the IC50 was found to be 5.4 µM.

Take `CON=C(F)c1cc(/C(=C\CCCN2CCOC2=O)c2cccc(C#N)c2)cc(C)c1OC` [ADAM 12, 5-[(1Z)-1-(3-Cyanophenyl)-5-(2-oxo-1,3-oxazolidin-3-yl)pent-1-en-1-yl]-N,2-dimethoxy-3-methylbenzenecarboximidoyl Fluoride]: the CC50 in series [1] and in series [3] was 1.66 µM in each case. Besides, the EC50 in series [2] is above 100 µM; in series [4] it was above 1.66 µM. In addition, in series [5], the IC50 was above 100 µM.

In the case of `CON=C(F)c1cc(/C(=C\CCCc2nnc(C)o2)c2ccc(C#N)cc2)cc(C)c1OC` [ADAM 13, 5-[(1Z)-1-(4-Cyanophenyl)-5-(5-methyl-1,3,4-oxadiazol-2-yl)pent-1-en-1-yl]-N,2-dimethoxy-3-methylbenzenecarboximidoyl Fluoride], the CC50 stood at 6.7 µM in series [1] and 11.4 µM in series [3]. Also, the EC50 was above 100 µM in series [2] and at least 9 µM in series [4]. Also, in series [4], the “SI (CC50/EC50) MT-4 cells” value was “≦1”. Further, the IC50 in series [5] stood at 44.4 µM.

`CON=C(F)c1cc(/C(=C\CCCc2nc(C)no2)c2ccc(C#N)cc2)cc(C)c1OC` [ADAM 14, 5-[(1Z)-1-(4-Cyanophenyl)-5-(3-methyl-1,2,4-oxadiazol-5-yl)pent-1-en-1-yl]-N,2-dimethoxy-3-methylbenzenecarboximidoyl Fluoride] had a CC50 in series [1] of 13.4 µM. Moreover, in series [2], the “SI (CC50/EC50) CEM-SS cells” value was 7 and the EC50 is 2.03 µM. In series [3], this compound had a CC50 of 20.4 µM. In series [4], the “SI (CC50/EC50) MT-4 cells” value is given as 4 and the response was half-maximal at 5.55 µM (EC50). For the same compound, in series [5], the IC50 was 0.91 µM.

As to `CON=C(F)c1cc(/C(=C\CCCN2CCOC2=O)c2ccc(C#N)cc2)cc(C)c1OC` [ADAM 15, 5-[(1Z)-1-(4-Cyanophenyl)-5-(2-oxo-1,3-oxazolidin-3-yl)pent-1-en-1-yl]-N,2-dimethoxy-3-methylbenzenecarboximidoyl Fluoride], the CC50 in series [1] stood at 6.7 µM; in series [3] it was 21.1 µM. For the same compound, the EC50 was above 100 µM in series [2] and above 21.1 µM in series [4]. For the same compound, the 50% inhibitory concentration (IC50) in series [5] is above 100 µM.

`CON=C(Cl)c1cc(/C(=C\CCCc2nnc(C)o2)c2cc(C)c3oc(=O)n(C)c3c2)cc(C)c1OC` [ADAM 16, 5-[(1E)-1-(3,7-Dimethyl-2-oxo-2,3-dihydro-1,3-benzoxazol-5-yl)-5-(5-methyl-1,3,4-oxadiazol-2-yl)pent-1-en-1-yl]-N,2-dimethoxy-3-methylbenzenecarboximidoyl Chloride] showed a CC50 in series [1] of 4.7 µM. Moreover, in series [2], the “SI (CC50/EC50) CEM-SS cells” value is on record as 4 and the EC50 came to 1.1 µM. The compound also had a CC50 in series [3] of 19.9 µM. For the same compound, in series [4], the “SI (CC50/EC50) MT-4 cells” value came to 27 and the EC50 worked out at 0.74 µM. Further, the IC50 in series [5] stood at 8.2 µM.

For `CON=C(Cl)c1cc(/C(=C\CCCc2nc(C)no2)c2cc(C)c3oc(=O)n(C)c3c2)cc(C)c1OC` [ADAM 17, 5-[(1E)-1-(3,7-Dimethyl-2-oxo-2,3-dihydro-1,3-benzoxazol-5-yl)-5-(3-methyl-1,2,4-oxadiazol-5-yl)pent-1-en-1-yl]-N,2-dimethoxy-3-methylbenzenecarboximidoyl Chloride], the midpoint of cytotoxicity in series [1], the CC50, lay at 2.37 µM. Also, in series [2], the “SI (CC50/EC50) CEM-SS cells” value is given as 5 and it took 0.51 µM to reach a half-maximal effect (EC50). This compound yielded a CC50 in series [3] of 29.4 µM. In series [4], the “SI (CC50/EC50) MT-4 cells” value was 59 and a half-maximal effect (EC50) was put at 0.5 µM. Moreover, the IC50 in series [5] is 4.19 µM.
